Earlier results on 3 compounds are cited in US4351830A (priority 1980, dated 1982).

For data set [1] the following is noted: literature.
Data set [2] concerns bacterial infections. Particulars: literature.

Consider `CC(=O)N[C@H]1C(O)O[C@H](CO)[C@@H](O)[C@@H]1O[C@H](C)C(=O)N[C@@H](C)C(=O)N[C@H](CCC(=O)O)C(N)=O` (stereo partly drawn) [N-acetylmuramyl-L-alanyl-D-isoglutamine], for which the adjuvant effect entry in data set [1] is listed as “high adjuvant effect”.

For orthobenzoic acid oxide, in data set [2], the “protective activity against bacterial infections” value is “exhibits a protective activity against bacterial infections”.

For the compound `CC(=O)N[C@H]1C(O)O[C@H](CO)[C@@H](O)[C@@H]1O[C@H](C)C(=O)N[C@@H](C)C(=O)N[C@H](CCC(N)=O)C(=O)O` (stereo partly drawn) [N-acetylmuramyl-L-alanyl-D-glutamine], the adjuvant effect entry in data set [1] was “high adjuvant effect”.
